Legend:
hERG (KCNH2) = hERG (KCNH2) (Homo sapiens, UniProt Q12809); test: Inhibition of human ERG expressed in HEK293 cells at 30 nM at holding potential of -80 mV by whole cell patch clamp assay relative to control; type: cell-based; conditions: HEK293 cells expressing human ERG
[1] = target: Sodium channel protein type 5 subunit alpha (Homo sapiens, UniProt Q14524); test: Inhibition of human Nav1.5 channel expressed in HEK293 cells at holding potential of -70 mV by whole cell patch clamp assay; type: cell-based
Sequence of Sodium channel protein type 5 subunit alpha (Q14524 whole entry): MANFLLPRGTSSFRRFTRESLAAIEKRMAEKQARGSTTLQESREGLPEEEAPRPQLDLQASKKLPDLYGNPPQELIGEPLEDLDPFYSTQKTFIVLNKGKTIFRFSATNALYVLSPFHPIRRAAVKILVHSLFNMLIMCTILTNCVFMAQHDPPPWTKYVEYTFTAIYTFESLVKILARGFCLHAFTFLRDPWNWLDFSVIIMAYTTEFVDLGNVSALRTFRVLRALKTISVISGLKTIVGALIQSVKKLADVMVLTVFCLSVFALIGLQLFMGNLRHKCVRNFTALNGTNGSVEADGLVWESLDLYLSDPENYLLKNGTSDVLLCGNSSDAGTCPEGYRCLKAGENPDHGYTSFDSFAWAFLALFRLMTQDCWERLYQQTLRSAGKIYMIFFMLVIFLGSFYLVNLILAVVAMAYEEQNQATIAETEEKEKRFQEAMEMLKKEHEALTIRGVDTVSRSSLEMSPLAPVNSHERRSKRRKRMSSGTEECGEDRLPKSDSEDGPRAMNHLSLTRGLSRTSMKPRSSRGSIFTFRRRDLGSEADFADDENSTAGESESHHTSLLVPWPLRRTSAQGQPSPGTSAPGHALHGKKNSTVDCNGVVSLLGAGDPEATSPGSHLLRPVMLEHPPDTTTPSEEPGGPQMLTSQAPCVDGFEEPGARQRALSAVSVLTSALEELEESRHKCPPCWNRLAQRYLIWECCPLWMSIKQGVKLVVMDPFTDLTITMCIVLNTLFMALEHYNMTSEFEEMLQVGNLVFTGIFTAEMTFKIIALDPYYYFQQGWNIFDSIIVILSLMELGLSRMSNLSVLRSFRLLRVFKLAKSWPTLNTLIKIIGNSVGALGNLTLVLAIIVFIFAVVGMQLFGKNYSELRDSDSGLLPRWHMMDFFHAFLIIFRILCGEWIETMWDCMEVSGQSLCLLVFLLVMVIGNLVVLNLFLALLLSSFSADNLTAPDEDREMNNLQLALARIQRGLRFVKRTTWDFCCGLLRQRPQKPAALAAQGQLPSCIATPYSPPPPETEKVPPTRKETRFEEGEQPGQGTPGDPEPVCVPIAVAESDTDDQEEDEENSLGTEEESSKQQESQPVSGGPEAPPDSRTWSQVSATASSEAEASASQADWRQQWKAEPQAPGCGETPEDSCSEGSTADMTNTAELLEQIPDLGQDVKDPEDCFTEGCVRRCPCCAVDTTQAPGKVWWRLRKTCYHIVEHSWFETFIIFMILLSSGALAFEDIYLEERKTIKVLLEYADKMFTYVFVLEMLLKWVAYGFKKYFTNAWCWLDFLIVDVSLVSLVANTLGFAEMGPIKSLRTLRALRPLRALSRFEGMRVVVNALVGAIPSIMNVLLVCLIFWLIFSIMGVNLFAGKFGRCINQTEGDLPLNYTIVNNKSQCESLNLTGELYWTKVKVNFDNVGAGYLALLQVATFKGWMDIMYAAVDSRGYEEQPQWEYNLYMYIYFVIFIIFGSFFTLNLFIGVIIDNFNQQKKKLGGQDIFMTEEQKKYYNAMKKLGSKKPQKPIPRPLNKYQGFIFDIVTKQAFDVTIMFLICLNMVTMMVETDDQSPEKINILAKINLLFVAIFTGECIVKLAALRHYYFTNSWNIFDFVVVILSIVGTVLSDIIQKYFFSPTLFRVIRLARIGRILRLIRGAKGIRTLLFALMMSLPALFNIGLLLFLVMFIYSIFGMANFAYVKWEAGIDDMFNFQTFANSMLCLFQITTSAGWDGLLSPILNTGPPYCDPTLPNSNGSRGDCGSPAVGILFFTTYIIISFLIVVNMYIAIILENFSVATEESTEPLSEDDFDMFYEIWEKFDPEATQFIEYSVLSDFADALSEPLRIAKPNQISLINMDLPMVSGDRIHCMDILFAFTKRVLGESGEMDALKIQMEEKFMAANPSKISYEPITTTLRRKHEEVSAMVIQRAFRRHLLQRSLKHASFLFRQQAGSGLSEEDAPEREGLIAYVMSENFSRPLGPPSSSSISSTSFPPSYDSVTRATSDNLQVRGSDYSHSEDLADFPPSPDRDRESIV

[2] = Plasma concentration in human cardiac arrhythmia model; type: ADME, cell-free
[3] = target: T1, KvLQT1/minK (Kv7.1/minK) potassium channel (Homo sapiens, UniProt P51787+Q8N4C8); test: Inhibition of human KvLQT1/minK channel expressed in CHO cells at 1 uM at holding potential of -80 mV by whole cell patch clamp assay relative to control; type: cell-based; conditions: CHO cells expressing human KvLQT1/minK channel
T1 sequence (P51787 whole entry): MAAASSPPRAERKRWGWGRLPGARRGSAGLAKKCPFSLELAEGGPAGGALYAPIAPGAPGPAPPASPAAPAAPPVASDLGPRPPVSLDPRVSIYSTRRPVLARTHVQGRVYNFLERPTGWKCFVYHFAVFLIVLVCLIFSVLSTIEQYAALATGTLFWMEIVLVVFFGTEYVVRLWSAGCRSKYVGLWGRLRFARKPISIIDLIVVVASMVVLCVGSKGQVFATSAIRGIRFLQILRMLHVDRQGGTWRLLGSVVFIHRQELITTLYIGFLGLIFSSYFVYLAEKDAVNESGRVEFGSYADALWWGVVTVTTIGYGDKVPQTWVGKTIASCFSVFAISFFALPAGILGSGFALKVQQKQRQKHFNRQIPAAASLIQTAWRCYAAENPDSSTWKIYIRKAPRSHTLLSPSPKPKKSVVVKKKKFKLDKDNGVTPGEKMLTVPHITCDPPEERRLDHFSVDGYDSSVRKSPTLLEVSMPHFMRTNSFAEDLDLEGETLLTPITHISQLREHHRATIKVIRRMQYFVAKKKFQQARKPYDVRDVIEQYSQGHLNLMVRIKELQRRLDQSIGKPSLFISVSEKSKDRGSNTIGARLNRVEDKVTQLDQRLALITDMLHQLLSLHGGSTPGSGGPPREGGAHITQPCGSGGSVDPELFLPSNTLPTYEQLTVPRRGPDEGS
T1 sequence (Q8N4C8 whole entry): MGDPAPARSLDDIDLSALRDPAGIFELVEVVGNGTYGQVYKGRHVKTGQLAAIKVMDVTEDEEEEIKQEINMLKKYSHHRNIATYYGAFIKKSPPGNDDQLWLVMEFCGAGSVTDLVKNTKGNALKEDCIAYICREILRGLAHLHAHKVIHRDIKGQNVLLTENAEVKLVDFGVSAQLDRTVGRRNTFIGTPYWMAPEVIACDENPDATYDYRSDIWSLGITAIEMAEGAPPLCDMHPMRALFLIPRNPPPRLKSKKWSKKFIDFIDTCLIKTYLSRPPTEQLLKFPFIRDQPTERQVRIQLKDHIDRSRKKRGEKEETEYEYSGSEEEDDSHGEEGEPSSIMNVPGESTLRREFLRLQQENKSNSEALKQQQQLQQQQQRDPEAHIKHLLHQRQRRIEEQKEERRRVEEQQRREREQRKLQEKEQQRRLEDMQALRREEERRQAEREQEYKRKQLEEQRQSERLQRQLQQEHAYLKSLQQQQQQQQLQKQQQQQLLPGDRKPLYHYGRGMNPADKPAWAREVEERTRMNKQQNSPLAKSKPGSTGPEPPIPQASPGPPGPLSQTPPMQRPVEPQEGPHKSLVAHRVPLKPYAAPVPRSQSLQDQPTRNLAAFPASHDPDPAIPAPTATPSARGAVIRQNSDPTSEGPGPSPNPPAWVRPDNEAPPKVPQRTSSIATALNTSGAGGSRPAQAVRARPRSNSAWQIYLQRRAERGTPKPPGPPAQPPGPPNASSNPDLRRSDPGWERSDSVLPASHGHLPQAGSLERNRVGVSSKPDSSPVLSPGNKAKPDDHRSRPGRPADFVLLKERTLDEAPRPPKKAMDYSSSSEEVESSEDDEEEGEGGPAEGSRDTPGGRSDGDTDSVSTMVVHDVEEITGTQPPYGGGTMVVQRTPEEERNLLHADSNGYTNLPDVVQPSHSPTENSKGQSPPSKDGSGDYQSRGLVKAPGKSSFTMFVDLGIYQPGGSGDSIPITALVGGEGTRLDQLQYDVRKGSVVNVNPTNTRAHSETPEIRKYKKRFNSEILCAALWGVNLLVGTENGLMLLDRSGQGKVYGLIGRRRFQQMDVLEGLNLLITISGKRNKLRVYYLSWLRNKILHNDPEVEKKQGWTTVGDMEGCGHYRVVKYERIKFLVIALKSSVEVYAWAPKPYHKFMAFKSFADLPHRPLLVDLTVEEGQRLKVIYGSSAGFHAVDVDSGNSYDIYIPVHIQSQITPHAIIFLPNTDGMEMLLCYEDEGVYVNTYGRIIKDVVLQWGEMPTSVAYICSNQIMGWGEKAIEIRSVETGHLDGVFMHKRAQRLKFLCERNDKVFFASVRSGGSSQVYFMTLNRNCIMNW

[4] = Protein binding to human plasma at 30 to 1000 ng/ml after 2 to 6 hrs by LC-MS/MS based rapid equilibrium dialysis method; type: ADME, cell-free; conditions: read-out: PPB (converted)
[5] = target: T2, Voltage-gated inwardly rectifying potassium channel KCNH2 (Homo sapiens, UniProt Q12809); test: Inhibition of human ERG expressed in HEK293 cells at holding potential of -80 mV by whole cell patch clamp assay; type: cell-based
[6] = target: T1, KvLQT1/minK (Kv7.1/minK) potassium channel; test: Inhibition of human KvLQT1/minK channel expressed in CHO cells at 10 uM at holding potential of -80 mV by whole cell patch clamp assay relative to control; type: cell-based; conditions: CHO cells expressing human KvLQT1/minK channel
[7] = Fraction unbound in human plasma at 30 to 1000 ng/ml after 2 to 6 hrs by LC-MS/MS based rapid equilibrium dialysis method; type: ADME, cell-free
[8] = target: T2, Voltage-gated inwardly rectifying potassium channel KCNH2; test: Inhibition of human ERG expressed in HEK293 cells by patch clamp assay; type: cell-based

SMILES | inhibition at 0.03 µM (hERG (KCNH2)) [%] | IC50 [1] [nM] | Cp [2] [ng/mL] | inhibition at 1 µM [3] [%] | fraction unbound [4] | IC50 [5] [nM] | inhibition at 10 µM [6] [%] | Cp(f) [7] [nM] | inhibition (INH) [8] [%]
CNC(=O)C(CCN1CCC(O)(c2ccc(Cl)cc2)CC1)(c1ccccc1)c1ccccc1 | 5.9 | 483 | 560 to 630 | 4 | 0.043 | 245 | 23 | 48 to 54 | 
CN(C)C(=O)C(CCN1CCC(O)(c2ccc(Cl)cc2)CC1)(c1ccccc1)c1ccccc1 [LOPERAMIDE] |  | 239 | 76 to 120 | 17 | 0.03 to 0.05 |  | 65 | 6.3 to 10 | 20

Source: ChEMBL document CHEMBL4184096 (Bioorg Med Chem Lett, 2018)
